Experimental data taken from PubChem BioAssay (NCI).
“And” between values parts separate entries of the source, which are not always exact repeats. Equal entries are not always repeated.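 1) Cells in 96-well plates. 2) Compound, 48 h, 5 concentrations. 3) Linear interpolation between surrounding doses. 4) Unreached endpoint = highest concentration. GI50 marks 50% less growth. The concentration for full growth arrest is given as TGI.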

What was measured:
Test in all cases: NCI tumour cell line growth inhibition, 48 h
MOLT-4 leukemia = test system: MOLT-4 leukemia
PC-3 prostate = test system: PC-3 prostate
NCI-H522 lung = test system: NCI-H522 lung
HCT-15 colon = test system: HCT-15 colon
EKVX NSCLC = test system: EKVX NSCLC
MALME-3M melanoma = test system: MALME-3M melanoma
SK-MEL-5 melanoma = test system: SK-MEL-5 melanoma
HOP-92 NSCLC = test system: HOP-92 NSCLC
SF-295 CNS = test system: SF-295 CNS
SF-268 CNS = test system: SF-268 CNS

SMILES | GI50 (MOLT-4 leukemia) | TGI (MOLT-4 leukemia) | GI50 (PC-3 prostate) | TGI (PC-3 prostate) | GI50 (NCI-H522 lung) | TGI (NCI-H522 lung) | GI50 (HCT-15 colon) | TGI (HCT-15 colon) | GI50 (EKVX NSCLC) | TGI (EKVX NSCLC) | GI50 (MALME-3M melanoma) | TGI (MALME-3M melanoma) | GI50 (SK-MEL-5 melanoma) | TGI (SK-MEL-5 melanoma) | GI50 (HOP-92 NSCLC) | TGI (HOP-92 NSCLC) | GI50 (SF-295 CNS) | TGI (SF-295 CNS) | GI50 (SF-268 CNS) | TGI (SF-268 CNS)
O=C(NC[C@H](O)CN1CCc2ccccc2C1)c1cc(NC2COC2)ncn1 | 15100 nM | 49.3 µM | 5920 nM | 96.3 µM | 23000 nM | 68.3 µM | 22700 nM | > 100 µM | 24.8 µM | > 100 µM | 14100 nM | 68.3 µM | 11400 nM | 24.5 µM | 18100 nM | > 100 µM | 14700 nM | > 100 µM | 14900 nM | 97.5 µM
O=c1oc2ccc(-c3ccc(F)cc3F)cc2c(=O)n1-c1cccc(C(F)(F)F)c1 | 2150 nM | 4.97 µM | 2040 nM | 12.4 µM | 343 nM | 5.61 µM | 1610 nM | 23.4 µM | 2.16 µM | > 100 µM | 785 nM | 4.74 µM | 440 nM | 1.71 µM | 172 nM | 0.931 µM | 1780 nM | 4.14 µM | 1230 nM | 8.21 µM
COC(=O)[C@]12CC[C@@H](C)[C@H](C)[C@@H]1C1=CC[C@@H]3[C@@]4(C)C[C@@H](O)[C@H](O)[C@@](C)(CO)C4=CC[C@@]3(C)[C@]1(C)CC2 | 15500 nM | 31.7 µM | 12900 nM | 27.5 µM | 16200 nM | 33.6 µM | 15100 nM | 31 µM | 15.9 µM | 32.5 µM | 17500 nM | 31.3 µM | 12800 nM | 27.3 µM | 19200 nM | 34.9 µM | 16700 nM | 33.1 µM | 17400 nM | 34.8 µM
CCCC(=O)Nc1cn(COC)c(C(=O)N2C[C@@H]3C[C@]34C2=CC(=O)c2[nH]cc(C)c24)n1 | 1190 nM | 3.8 µM and 21.2 µM | 5650 nM | 24.1 µM and 19 µM |  | 13.5 µM and 4 µM |  | 50 µM and 38.9 µM | 14.8 µM | > 5 µM and 38.2 µM |  | 6.66 µM | 3280 nM | 12.8 µM and 11.8 µM | 5510 nM | 20.6 µM and 18.2 µM | 3680 nM | 50 µM and 15.8 µM | 2650 nM | 30.5 µM and 8.66 µM
NS(=O)(=O)c1ccc(N=Nc2c(O)c(C(=O)O)cc3ccccc23)cc1 |  | > 100 µM |  | > 100 µM |  | > 100 µM |  | > 100 µM |  | > 100 µM |  | 65.9 µM |  | > 100 µM |  | > 100 µM |  | > 100 µM |  | > 100 µM
Cc1c(N(C)C)ccc2c(=O)c3cccc(CC(=O)O)c3oc12 |  | > 100 µM |  | > 100 µM |  | > 100 µM |  | > 100 µM |  | > 100 µM |  | > 100 µM |  | > 100 µM |  | > 100 µM |  | > 100 µM |  | > 100 µM
O=C(Nc1cc(C(F)(F)F)cc(C(F)(F)F)c1)c1cc(Cl)ccc1O | 269 nM and 332 nM | 0.845 µM and 2.69 µM | 257 nM and 266 nM | > 3.02 µM and 3.78 µM | 186 nM and 214 nM | 0.818 µM and 1.9 µM | 271 nM and 276 nM | 1.62 µM and 1.49 µM | 0.295 µM and 0.288 µM | > 3.58 µM and 3.43 µM | 225 nM and 200 nM | 1.16 µM and 0.668 µM | 63.2 nM and 94 nM | 0.206 µM and 0.257 µM | 120 nM and 41.2 nM | 0.418 µM and 0.304 µM | 179 nM and 173 nM | 0.479 µM and 0.402 µM | 210 nM | 2.1 µM and 2.82 µM
CCC[CH2][Sn]([CH2]CCC)([O]C(=O)c1ccc(OC)c(OC)c1OC)[O][Sn]([CH2]CCC)([CH2]CCC)[O]C(=O)c1ccc(OC)c(OC)c1OC | 80.4 nM | 2.34 µM | 1200 nM | 2.46 µM | < 10.8 nM | 0.0392 µM | 175 nM | 0.526 µM | 1.39 µM | 2.76 µM | 168 nM | 0.757 µM | 604 nM | 1.81 µM | 159 nM | 0.554 µM | 568 nM | 1.5 µM | 187 nM | 0.842 µM
COc1cc(N=Nc2ccc(O)c3ncccc23)c2ncccc2c1 | 3500 nM | > 100 µM | 2840 nM | > 100 µM | 4260 nM | > 100 µM | 923 nM | > 100 µM | 4.08 µM | > 100 µM | 4030 nM | 33.7 µM | 2090 nM | 13.3 µM | 1970 nM | > 100 µM | 18500 nM | > 100 µM | 2810 nM | > 100 µM
COc1cc(N(CCC#N)CCC#N)ccc1/C(N=Nc1ccc(Cl)cc1)=N/NC(=O)c1cc(Br)ccc1O | 32.9 µg/mL | > 150 µg/mL | 64.1 µg/mL | > 150 µg/mL | 56.4 µg/mL | > 150 µg/mL | 32.7 µg/mL | 66.4 µg/mL | 72.4 µg/mL | > 150 µg/mL | > 150 µg/mL | > 150 µg/mL | 82 µg/mL | > 150 µg/mL | > 150 µg/mL | > 150 µg/mL | 79.4 µg/mL | > 150 µg/mL | 35 µg/mL | > 150 µg/mL
COc1ccc(-c2ccc(=O)oc2C#Cc2cc(OC)c(OC)c(OC)c2)cc1O | 952 nM | > 100 µM | 621 nM | > 100 µM | 172 nM | 0.852 µM | 324 nM | > 100 µM | 1.38 µM | > 100 µM | 2660 nM | > 92.6 µM | 183 nM | 1.16 µM | 999 nM | 9.87 µM | 495 nM | > 100 µM | 558 nM | > 100 µM
S=c1[nH]c(=S)c2cc3ccccc3nc2[nH]1 | 4680 nM | > 100 µM | 4740 nM | > 100 µM | 20500 nM | 51.7 µM | > 100000 nM | > 100 µM | 31 µM | > 100 µM | 14600 nM | 45.1 µM | 30000 nM | > 100 µM | 15400 nM | > 100 µM | > 100000 nM | > 100 µM | 39400 nM | > 100 µM
CC1CC2CCCC(O)=C2C(=O)O1 (configuration not stated) |  | > 100 µM |  | > 100 µM |  | > 100 µM |  | > 100 µM |  | > 100 µM |  | > 100 µM |  | > 100 µM |  | > 100 µM |  | > 100 µM |  | > 100 µM
